This is an account of results in patent US6090820A, “Spirocyclic and bicyclic diazinyl and carbazinyl oxazolidinones” (Pharmacia & Upjohn Company, priority 1997, dated 2000).

One test relates to S. pneumoniae UC® 9912. The experiment in a line: MIC by agar dilution, S. pneumoniae UC 9912. The class given is cell-based. Conditions: Streptococcus pneumoniae. An excerpt:
(§1) The oxazolidinone antibacterial agents of this invention have useful activity against a variety of organisms. The in vitro activity of compounds of this invention can be assessed by standard testing procedures such as the determination of minimum inhibitory concentration (MIC) by agar dilution as described in "Methods for Dilution Antimicrobial Susceptibility Tests for Bacteria That Grow Aerobically" (MFT) published January 1983 by the National Committee for Clinical Laboratory Standards, 771 East Lancaster Avenue, Villanova, Pa. 19084, USA. The activity of selected compounds of this invention against Staphylococcus aureus and Streptococcus pneumoniae are shown in Table 1.

The subject of another test is S. aureus UC ® 9213. As to the kind of experiment: MIC by agar dilution, S. aureus UC 9213. The note with it: Staphylococcus aureus. The class given is cell-based.
Description: as §1
For orientation: In agar dilution the substance is mixed into plates at graded concentrations.

Setting [1] is: UC9912, S. pneumoniae UC 9912, in vitro, agar dilution, read-out: Minimum Inhibitory Concentration.
The mark [2] stands for this setting: UC9213, S. aureus UC 9213, in vitro, agar dilution, read-out: Minimum Inhibitory Concentration.

SMILES strings stand for the structures. Converted amounts (≈) assume the structure as drawn. Where two headings read alike, the source gives them in different places. Where only a bound is given, the exact number is not on record here.

Regarding `CC(=O)NC[C@H]1CN(c2ccc(N3C[C@H]4CN(C(=O)COCc5ccccc5)C[C@H]4C3)c(F)c2)C(=O)O1` [Example 2, (S)-N-[[3-[3-fluoro4-[cis-3-(benzyloxyacetyl)-3,7-diazabicyclo[3.3.0]octan-7-yl]phenyl]-2-oxo-5-oxazolidinyl]methyl]acetamide], the MIC in the test with S. pneumoniae UC® 9912 (setting [1]) worked out at 1 µg/mL (≈ 1.96 µM); in the test on S. aureus UC ® 9213 (setting [2]), 8 µg/mL (≈ 15.7 µM).

In the case of `CC(=O)NC[C@H]1CN(c2ccc(N3C[C@H]4CN(C(=O)OCc5ccccc5)C[C@H]4C3)c(F)c2)C(=O)O1` [Example 1, (S)-N-[[3-[4-[cis-3-(carbobenzyloxy)-3,7-diazabicyclo[3.3.0]octan-7-yl]-3-fluorophenyl]-2-oxo-5-oxazolidinyl]methyl]acetamide], the MIC was determined as 2 µg/mL (≈ 4.03 µM) with S. pneumoniae UC® 9912 (setting [1]) and 4 µg/mL (≈ 8.06 µM) with S. aureus UC ® 9213 (setting [2]).

With `CC(=O)NC[C@H]1CN(c2ccc(N3C[C@H]4CN(C(=O)CO)C[C@H]4C3)c(F)c2)C(=O)O1` [Example 3, (S)-N-[[3-[3-fluoro4-[cis-3-(hydroxyacetyl)-3,7-diazabicyclo[3.3.0]octan-7-yl]phenyl]-2-oxo-5-oxazolidinyl]methyl]acetamide], the MIC in the test on S. pneumoniae UC® 9912 (setting [1]) was under 0.5 µg/mL; with S. aureus UC ® 9213 (setting [2]), 4 µg/mL (≈ 9.51 µM).

Turning to `CN[C@H](CC(C)C)C(=O)N[C@H]1C(=O)N[C@@H](CC(N)=O)C(=O)N[C@H]2C(=O)N[C@H]3C(=O)N[C@H](C(=O)N[C@H](C(=O)O)c4cc(O)cc(O)c4-c4cc3ccc4O)[C@H](O)c3ccc(c(Cl)c3)Oc3cc2cc(c3O[C@@H]2O[C@H](CO)[C@@H](O)[C@H](O)[C@H]2O[C@H]2C[C@](C)(N)[C@H](O)[C@H](C)O2)Oc2ccc(cc2Cl)[C@H]1O` [vancomycin, reference compound], the MIC stood at 0.5 µg/mL (≈ 0.345 µM) with S. pneumoniae UC® 9912 (UC9912, read-out: Minimum Inhibitory Concentration) and 1 µg/mL (≈ 0.69 µM) in the test on S. aureus UC ® 9213 (UC9213, read-out: Minimum Inhibitory Concentration).
